# Assay results reported in paper PMC3441526, “KCN1, a Novel Synthetic Sulfonamide Anticancer Agent: In Vitro and In Vivo Anti-Pancreatic Cancer Activities and Preclinical Pharmacology” (PLoS ONE, 2012).
# Assays:
# [1] = system: HPAC, Panc-1, Mia Paca-2 and BxPC3 pancreatic cancer cells; assay: Western blot of cell cycle-related proteins; format: cell-based, human; details: all four cell lines, 12 h and 24 h
# Procedure: In the in vitro studies, cells were exposed to various concentrations of KCN1 for 12 or 24 h. For immunoblotting, cell lysates were fractionated with identical amounts of protein by SDS-PAGE and transferred to Bio-Rad trans-Blot nitrocellulose membranes (Bio-Rad Laboratories, Hercules, CA). The nitrocellulose membrane was then incubated in blocking buffer (Tris-buffered saline containing 0.1% Tween 20 and 5% non-fat milk) for 1 hr at room temperature. Then the membrane was incubated with the appropriate primary antibody overnight at 4°C or 2 h at room temperature with gentle shaking. The membrane was washed three times with rinsing buffer (Tris-buffered saline containing 0.1% Tween 20) for 15 min and then incubated with goat anti-mouse/rabbit IgG-horseradish peroxidase-conjugated antibody (Bio-Rad) for 1 h at room temperature. After repeating the washes in triplicate, the protein of interest was detected by enhanced chemilluminescence reagents from PerkinElmer LAS, Inc (Boston, MA).
# [2] = S9 metabolism; format: in vitro ADME, CD2F1 mice
# Procedure: The in vitro metabolism of KCN1 was determined using hepatic microsomal S9 fractions from CD2F1 mice (In Vitro Technologies, Boston, MA). The reaction mixture consisted of 20 µL of 1000 µM KCN1 (in DMSO) and 1280 µL of cold 100 mM Tris buffer (pH 7.4). The reactions were initiated by adding 200 µL of the appropriate S9 fraction, and were maintained at 37°C. […] Metabolic reactions were initiated by adding phase I (NADPH-regenerating systems) or phase II (UDPGA and PAPS) reagents to the reaction mixtures, respectively. At designated time points (0, 15, 30, 45, and 60 min), duplicate 100 µL portions of the incubation mixture were removed and subjected to HPLC analysis by the same procedure described for plasma samples above. The stability of the drug was determined by analysis of intact KCN1, in comparison with negative control (without S9 fractions).
# [3] = system: Panc-1 cells; assay: Annexin V apoptosis assay; format: cell-based, human; details: Panc-1, 50 µM, 48 h
# Procedure: (§1) Cells in early and late stages of apoptosis were detected using an Annexin V-FITC apoptosis detection kit from BioVision (Mountain View, CA), according the manufacturer’s protocol, [47]. In brief, 2–3×10^5 cells were exposed to various doses of the test compound KCN1 (0, 5, 12.5, 50 µM) and incubated for 48 h prior to analysis. The samples were analyzed using a Becton Dickinson FACSCalibur instrument (Ex = 488 nm; Em = 530 nm). Cells that were positive for Annexin V-FITC alone (early apoptosis) and Annexin V-FITC and PI (late apoptosis) were counted.
# [4] = system: BxPC3 cells; assay: Annexin V apoptosis assay; format: cell-based, human; details: BxPC3, 50 µM, 48 h
# Procedure: as §1
# [5] = system: HPAC cells; assay: Annexin V apoptosis assay; format: cell-based, human; details: 50 µM, 48 h, against untreated control
# Procedure: as §1
# [6] = system: Mia Paca-2 cells; assay: Annexin V apoptosis assay; format: cell-based, human; details: Mia Paca-2, 50 µM, 48 h
# Procedure: as §1
# [7] = system: Panc-1 xenograft tumors; assay: Subcutaneous xenograft tumor model; format: in vivo, nude mice (nu/nu); details: for tumor growth inhibition: 5 days/week, Day 21
# Procedure: (§2) The animal procedures were performed under approval by the Institutional Animal Use and Care Committee of Texas Tech University Health Sciences Center (IACUC # 10031, PHS Assurance # A 3056-01, USDA Registration # 74-R-0050, REF # 039436). Female athymic pathogen-free nude mice (nu/nu, 4–6 weeks) were purchased from Charles River Laboratories International Inc. (Wilmington, MA). To establish Panc-1 and Mia Paca-2 human pancreatic cancer xenograft tumors, cultured Panc-1 (5×10^6) and Mia Paca-2 (1×10^7) cells were harvested from monolayer cultures, washed twice with serum-free medium, re-suspended and injected subcutaneously (total volume 0.2 mL) into the left inguinal area of the mice. All animals were monitored for activity, physical condition, body weight, and tumor growth. Tumor size was determined every other day by caliper measurement of two perpendicular diameters of the implant. Tumor volume (in mm^3) was calculated by the formula, ½ (a × b ^2) where “a” is the long diameter and “b” is the short diameter, [47].
# (§3) The animals bearing human cancer xenografts were randomly divided into various treatment groups and a control group (7–10 mice/group). The untreated control group received the vehicle only. For the Panc-1 and Mia Paca-2 xenograft models, KCN1 was dissolved in a 1∶1 solution of Cremophor EL (Sigma, St. Louis, MO): ethanol (200 Proof) by heating to 80–90°C in a water bath and vortexing, then diluted with an equal volume of phosphate-buffered saline, and was administered by intraperitoneal injection at doses of 30 and 60 mg/kg/d, 5d/wk for several weeks. Treatment was initiated once tumor volume reached ∼100 mm^3. The dosage regimen was decided based upon IC50 values obtained from in-vitro studies and adjustments for body surface and weight of the treated animal.
# [8] = system: Mia Paca-2 xenograft tumors; assay: Subcutaneous xenograft tumor model; format: in vivo, nude mice (nu/nu); details: for decrease of tumor growth: 5 days/wk for 6 weeks
# Procedure: as §2, §3
# [9] = system: Panc-1 cells; assay: BrdUrd incorporation cell proliferation assay; format: cell-based; details: Homo sapiens; Panc-1, 50 µM, 24 h
# Procedure: (§4) The effect of KCN1 on cell proliferation was determined using the BrdUrd incorporation assay (Oncogene, La Jolla, CA) according to the manufacturer’s instructions, [47]. In brief, cells were seeded in 96-well plates (8 × 10^3 to 1.2 × 10^4 cells per well) and incubated with various concentrations of KCN1 (0, 5, 12.5 and 50 µM) for 24 h. BrdUrd was added to the medium 10 h before termination of the experiment. The BrdUrd incorporated into cells was determined by anti-BrdUrd antibody, and absorbance was measured at dual wavelengths of 450/540 nm using an OPTImax microplate reader (Molecular Devices; Sunnyvale, CA).
# [10] = system: BxPC3 cells; assay: BrdUrd incorporation cell proliferation assay; format: cell-based; details: Homo sapiens, BXPC-3; BxPC3, 50 µM, 24 h
# Procedure: as §4
# [11] = system: HPAC cells; assay: BrdUrd incorporation cell proliferation assay; format: cell-based; details: Homo sapiens, 24 h
# Procedure: as §4
# [12] = system: Mia Paca-2 cells; assay: BrdUrd incorporation cell proliferation assay; format: cell-based; details: Homo sapiens; Mia Paca-2, 50 µM, 24 h
# Procedure: as §4
smiles,measurement,setting,value
"COc1ccc(S(=O)(=O)N(Cc2ccc3c(c2)C=CC(C)(C)O3)c2ccccc2)cc1OC [KCN1, 3,4-dimethoxy-N-[(2,2-dimethyl-2H-chromen-6-yl)methyl]-N-phenylbenzenesulfonamide]","expression of E2F1, Cdk2, Cdk4, Cdk6, Cdc25c, Cyclin D1 and Cyclin E",[1],decreased expression
same,expression of p21 and p27,[1],increased the expression
same,decrease in amount of KCN1,"[2]; mouse S9, phase I (oxidation) enzymes, NADPH-regenerating system",more than 60%
same,half-life with phase II enzymes,"[2]; mouse S9, phase II (conjugation) enzymes, UDPGA and PAPS",relatively long half-life
same,apoptotic activity,[3],no detectable apoptotic activity
same,apoptotic activity,[4],no detectable apoptotic activity
same,apoptotic index,[5],1.4 fold
same,apoptotic activity,[6],no detectable apoptotic activity
same,tumor growth inhibition,[7]; 30 mg/kg i.p.,approximately 46%
same,tumor growth inhibition,[7]; 60 mg/kg i.p.,61%
same,body weight versus controls,[7]; 30 or 60 mg/kg i.p.,no significant differences in body weights
same,decrease of tumor growth,[8]; 30 mg/kg i.p.,about 43%
same,decrease of tumor growth,[8]; 60 mg/kg i.p.,~57%
same,body weight versus controls,[8]; 30 or 60 mg/kg i.p.,no significant differences in body weights
same,inhibition at 50 µM,[9],~56%
same,inhibition at 50 µM,[10],~88%
same,inhibition at 50 µM,[11],~80%
same,inhibition at 50 µM,[12],~60%
